Legend:
[1] = tested on: Viridans Strep; experiment: Phase 2 CSSSI study, clinical outcome by organism: Viridans Strep; format: in vivo, Viridans Streptococci; conditions: ME population
Protocol: (§1) A randomized (1:1), controlled, evaluator-blinded Phase 2 study comparing 9-[(2,2-dimethyl-propyl amino)-methyl-minocycline (compound 1) and linezolid (Zyvox™) for the treatment of complicated skin and skin structure infections (CSSSI) was conducted. Patients with CSSSI who required initial intravenous (IV) therapy and met inclusion and exclusion criteria were enrolled at 11 centers in the US and were randomized to receive either compound 1 (100 mg Q24 h IV with 200 mg Q24 h oral step-down) or linezolid (600 mg Q12 h IV with 600 mg Q12 h oral step-down).
(§2) An infecting pathogen was defined as an isolate derived from the last positive culture taken from the site of infection under study prior to and including day 1.

[2] = Phase 2 CSSSI study, subject disposition (discontinuations); format: in vivo, human; conditions: ITT population
Protocol: as §1
All subjects had four structured evaluations: at Enrollment (Baseline); at End of IV Treatment; at End of Treatment; and at 10 to 17 days after last dose of treatment (test of cure (TOC) evaluation). In addition, the blinded investigator saw each subject daily while they were on IV therapy and at least every 3 days while receiving oral treatment to determine whether to continue current treatment, switch from IV to oral therapy, or discontinue treatment.

[3] = tested on: G+ anaerobes; experiment: Phase 2 CSSSI study, clinical outcome by organism: G+ anaerobes; format: in vivo, gram-positive anaerobes; conditions: ME population
Protocol: as §1, §2

[4] = tested on: MRSA; experiment: Phase 2 CSSSI study, clinical outcome by organism: MRSA; format: in vivo, Staphylococcus aureus
Protocol: as §1, §2

[5] = tested on: Enterococcus; experiment: Phase 2 CSSSI study, clinical outcome by organism: Enterococcus; format: in vivo; conditions: ME population
Protocol: as §1, §2

[6] = tested on: Mixed GPC/GNR; experiment: Phase 2 CSSSI study, clinical outcome by organism: Mixed GPC/GNR; format: in vivo; conditions: ME population
Protocol: as §1, §2

[7] = Phase 2 CSSSI study, safety and adverse events by patient; format: in vivo, human
Protocol: as §1
(§3) At each of the four structured evaluations, the blinded evaluator assessed the subject, with particular attention to scoring the findings at the primary site of infection and obtaining cultures. Clinical and microbiologic outcomes were determined using these assessments. Primary evaluation criteria was safety and tolerability compared with linezolid. Secondary evaluation criteria was efficacy of compound 1 compared to linezolid, as well as pharmacokinetics of compound 1.
In addition, the patients in the study were monitored for adverse events (AE). An adverse event is any untoward medical occurrence temporally associated with the use of a medical product in a subject, whether or not the event is considered causally related to the medical product.

[8] = Phase 2 CSSSI study, safety: ALT level; format: in vivo, human
Protocol: as §1, §3

[9] = probably or possibly drug-related by blinded evaluator
[10] = EOT, ALT abnormal at enrollment
[11] = EOT, ALT within normal limits at enrollment
[12] = TOC, ALT abnormal at enrollment
[13] = TOC, ALT within normal limits at enrollment
[14] = max on treatment, ALT abnormal at enrollment
[15] = max on treatment, ALT within normal limits at enrollment

CN(C)c1cc(CNCC(C)(C)C)c(O)c2c1C[C@H]1C[C@H]3[C@H](N(C)C)C(O)=C(C(N)=O)C(=O)[C@@]3(O)C(O)=C1C2=O [Compound 1, 9-[(2,2-dimethyl-propylamino)-methyl]-minocycline]
Clinical outcome Failure (number) [1]: 1 | Clinical outcome Success (number) [1]: 3 | Premature Discontinuation (% of subjects) [2]: (4.5%) | Premature Discontinuation (number of subjects) [2]: 5 | Premature Discontinuation due to Adverse Event (% of subjects) [2]: (0.9%) | Premature Discontinuation due to Adverse Event (number of subjects) [2]: 1 | Premature Discontinuation due to Treatment Failure (% of subjects) [2]: (0.9%) | Premature Discontinuation due to Treatment Failure (number of subjects) [2]: 1 | Premature Discontinuation due to Adverse Event (number of subjects) ([2]; listed as compound 1): no discontinuations | Clinical outcome Failure (number) [3]: 0 | Clinical outcome Success (number) [3]: 0 | Clinical outcome Failure (number) ([4]; ME population, MRSA): 0 | Clinical outcome Success (number) ([4]; ME population, MRSA): 42 | Clinical outcome Failure (number) ([4]; ME population, MRSA, listed as compound 1): none | clinical success rate against MRSA ([4]; as determined in the trials of the Exemplification): 100% | Clinical outcome Failure (number) [5]: 1 | Clinical outcome Success (number) [5]: 1 | Clinical outcome Failure (number) [6]: 2 | Clinical outcome Success (number) [6]: 12 | tolerability ([7]; 100 mg Q24 h IV with 200 mg Q24 h oral step-down): well tolerated | Adverse events by patient, Musculoskeletal, Drug Related ([7]; human, in vivo): 0 | Adverse events by patient, Musculoskeletal, Total ([7]; human, in vivo): 8 | GI events leading to discontinuation of therapy ([7]; human, in vivo): did not result in discontinuation of therapy | severity of GI events ([7]; observed almost entirely during oral therapy): mild | Adverse events by patient, Cardiac, Drug Related [7, 9]: 0 | Adverse events by patient, Ear, Drug Related [7, 9]: 0 | Adverse events by patient, Eye, Drug Related [7, 9]: 0 | Adverse events by patient, GI, Drug Related [7, 9]: 12 | Adverse events by patient, General, Drug Related [7, 9]: 5 | Adverse events by patient, Heme, Drug Related [7, 9]: 0 | Adverse events by patient, Infection, Drug Related [7, 9]: 0 | Adverse events by patient, Injury, Drug Related [7, 9]: 0 | Adverse events by patient, Investigations, Drug Related [7, 9]: 3 | Adverse events by patient, Metabolism, Drug Related [7, 9]: 1 | Adverse events by patient, Neurologic, Drug Related [7, 9]: 4 | Adverse events by patient, Psych, Drug Related [7, 9]: 2 | Adverse events by patient, Renal, Drug Related [7, 9]: 1 | Adverse events by patient, Reproductive, Drug Related [7, 9]: 0 | Adverse events by patient, Respiratory, Drug Related [7, 9]: 0 | Adverse events by patient, Skin, Drug Related [7, 9]: 7 | Adverse events by patient, Vascular, Drug Related [7, 9]: 0 | Adverse events by patient, Cardiac, Total ([7]; safety population): 4 | Adverse events by patient, Ear, Total ([7]; safety population): 0 | Adverse events by patient, Eye, Total ([7]; safety population): 2 | Adverse events by patient, GI, Total ([7]; safety population): 21 | Adverse events by patient, General, Total ([7]; safety population): 11 | Adverse events by patient, Heme, Total ([7]; safety population): 1 | Adverse events by patient, Infection, Total ([7]; safety population): 6 | Adverse events by patient, Injury, Total ([7]; safety population): 1 | Adverse events by patient, Investigations, Total ([7]; safety population): 7 | Adverse events by patient, Metabolism, Total ([7]; safety population): 9 | Adverse events by patient, Neurologic, Total ([7]; safety population): 12 | Adverse events by patient, Psych, Total ([7]; safety population): 5 | Adverse events by patient, Renal, Total ([7]; safety population): 2 | Adverse events by patient, Reproductive, Total ([7]; safety population): 2 | Adverse events by patient, Respiratory, Total ([7]; safety population): 3 | Adverse events by patient, Skin, Total ([7]; safety population): 12 | Adverse events by patient, Vascular, Total ([7]; safety population): 3 | Patients with no adverse event (None), % ([7]; safety population): 58.6% | Patients with no adverse event (None), number ([7]; safety population): 65 | Total Patients with 1 or more AE, % ([7]; safety population): 41.4% | Total Patients with 1 or more AE, number ([7]; safety population): 56 | ALT Increase: >2x ULN and 2x baseline (number) [8, 10]: 0 | ALT NS: >ULN and <2x baseline (%) [8, 10]: 84.6% | ALT NS: >ULN and <2x baseline (number) [8, 10]: 11 | ALT Within normal limits (%) [8, 10]: 15.4% | ALT Within normal limits (number) [8, 10]: 2 | ALT 1x-2x (%) [8, 11]: 6.5% | ALT 1x-2x (number) [8, 11]: 6 | ALT 2x-3x (number) [8, 11]: 0 | ALT >3x (number) [8, 11]: 0 | ALT Within normal limits (%) [8, 11]: 93.5% | ALT Within normal limits (number) [8, 11]: 86 | ALT Increase: >2x ULN and 2x baseline (%) [8, 12]: (7.7%) | ALT Increase: >2x ULN and 2x baseline (number) [8, 12]: 1 | ALT NS: >ULN and <2x baseline (%) [8, 12]: (69.2%) | ALT NS: >ULN and <2x baseline (number) [8, 12]: 9 | ALT Within normal limits (%) [8, 12]: (23.1%) | ALT Within normal limits (number) [8, 12]: 3 | ALT 1x-2x (%) [8, 13]: (5.6%) | ALT 1x-2x (number) [8, 13]: 5 | ALT 2x-3x (number) [8, 13]: 0 | ALT >3x (number) [8, 13]: 0 | ALT Within normal limits (%) [8, 13]: (94.4%) | ALT Within normal limits (number) [8, 13]: 85 | ALT Increase: >2x ULN and 2x baseline (%) [8, 14]: (14.3%) | ALT Increase: >2x ULN and 2x baseline (number) [8, 14]: 2 | ALT NS: >ULN and <2x baseline (%) [8, 14]: (78.6%) | ALT NS: >ULN and <2x baseline (number) [8, 14]: 11 | ALT Within normal limits (%) [8, 14]: (7.1%) | ALT Within normal limits (number) [8, 14]: 1 | ALT 1x-2x (%) [8, 15]: (12.4%) | ALT 1x-2x (number) [8, 15]: 12 | ALT 2x-3x (number) [8, 15]: 0 | ALT >3x (%) [8, 15]: (1.0%) | ALT >3x (number) [8, 15]: 1 | ALT Within normal limits (%) [8, 15]: (86.6%) | ALT Within normal limits (number) [8, 15]: 84

— patent US9724358B2, “Minocycline compounds and methods of use thereof” (Paratek Pharmaceuticals, Inc., priority 2008, dated 2017)
